Laboratory results taken from publication PMC10860144, “Exploring the Dispersion and Electrostatic Components in Arene–Arene Interactions between Ligands and G4 DNA to Develop G4-Ligands” (Journal of Medicinal Chemistry, 2024).

Columns and labels:
[1] = tested on: template not forming a G4 structure (PEPu24T mut); assay: Taq polymerase stop (primer extension) assay, non-G4 template; type: biochemical
Description: To challenge all the synthesized compounds (2–11 and 25–29) in a more intricate context, we conducted a Taq polymerase stop assay to evaluate their capacity to impede DNA synthesis through G4 stabilization. In this assay, we compared the progress of the Taq DNA polymerase along two distinct DNA templates: one with a G4 structure (Figure 5) and another serving as a non-G4 control (Figure S21). If an external species (e.g., G4 ligand) binds and stabilizes the G4 structure, the polymerase will be partially halted. The extent of this DNA polymerase stalling is dependent on the ability of the compound to stabilize the G4 on the DNA template. The increased G4 stabilization can be detected as a reduction in the amount of newly synthesized DNA that has reached the end of the DNA template (full-length/end-product). Analysis of these shorter terminated DNA products will give information about the precise location of the DNA polymerase stalling with a single nucleotide resolution. If the ligand imposes little to no stabilization or binding, the G4 is readily resolved by the DNA polymerase, and no difference in the amount of DNA end-product can therefore be expected upon the addition of the compound. […]
The images were quantified using ImageJ 1.53e software and the percentage of full-length product compared to a sample without compound was calculated. […]

[2] = tested on: G4 DNA structures in HeLa cells; assay: BG4 immunostaining of G4 DNA structures in HeLa cells; type: cell-based, human; settings: 24 h
Experimental: The pSANG10-3F-BG4 construct, for expression and purification of recombinant BG4 (BG4), was a gift from Shankar Balasubramanian (Addgene plasmid # 55756). BG4 was purified as previously described.[49] BG4 immunostaining was performed as previously described.[50] Briefly, 60,000 HeLa cells were seeded on 13 mm glass coverslips the day before treatment. Cells were treated for 24 h with the compounds at the indicated concentrations. After treatment, cells were fixed in 2% paraformaldehyde and permeabilized in 0.1% Triton X-100 at room temperature. […] Cell nuclei were focused on the DAPI channel, and BG4-positive foci were counted in a semiautomatic mode using a customized Cell Profiler (Broad Institute) pipeline. […]
Figure S23. Toxicity of 5 and 27 calculated as % viability of IHTLCP cells treated for 72h at the indicated concentrations compared to non-treated cells. […] IC50 and R2 determined with Graph Pad Prism is indicated. […]
Cells were imaged with a LEICA SP8 FALCON confocal microscope equipped with a 63× oil objective (NA 1.40) using identical acquisition settings. Cell nuclei were focused on the DAPI channel, and BG4-positive foci were counted in a semiautomatic mode using a customized Cell Profiler (Broad Institute) pipeline. […]

| Compound | concentration at which an effect on the Taq polymerase was observed in the absence of a G4 structure [1] | number of BG4 foci per cell nucleus ([2]; 2 μM, versus 1 μM and mock-treated cells) | number of BG4 foci per cell nucleus ([2]; 20 μM) |
| --- | --- | --- | --- |
| Cc1cc(C)c2nc(Nc3nc(C)cc(NCCCN(C)C)n3)nc(C)c2c1 [Compound 5, N4-(3-(Dimethylamino)propyl)-6-methyl-N2-(4,6,8-trimethylquinazolin-2-yl)pyrimidine-2,4-diamine] | > 4 µM | increased significantly | – |
| Cc1cc(C)c2nc(Nc3nc(C)cc(C)n3)nc(C)c2c1 [Compound 27, N-(4,6-Dimethylpyrimidin-2-yl)-4,6,8-trimethylquinazolin-2-amine] | – | – | not statistically fully significant |
